{"source": "patent US9532990B2", "about": "(Zhejiang DTRM Biopharma Co. Ltd., priority 2014, dated 2017)", "assay": "Toxicokinetic (TK) study in dogs, 28-day", "assay_type": "in vivo, dog", "conditions": "for Cmax / Tmax / AUC(0-t): dog, in vivo; for AUC(0-t): read-out: AUC0-24 h", "key": {"[1]": {"conditions": "female, 15 mg/kg/day, Study Day 1, Female"}, "[2]": {"conditions": "female, 15 mg/kg/day, Study Day 28, Female"}, "[3]": {"conditions": "female, 45 mg/kg/day, Study Day 1, Female"}, "[4]": {"conditions": "female, 45 mg/kg/day, Study Day 28, Female"}, "[5]": {"conditions": "female, 105 mg/kg/day, Study Day 28, Female"}, "[6]": {"conditions": "female, 150 mg/kg/day, Study Day 1, Female"}, "[7]": {"conditions": "male, 15 mg/kg/day, Study Day 1, Male"}, "[8]": {"conditions": "male, 15 mg/kg/day, Study Day 28, Male"}, "[9]": {"conditions": "male, 45 mg/kg/day, Study Day 1, Male"}, "[10]": {"conditions": "male, 45 mg/kg/day, Study Day 28, Male"}, "[11]": {"conditions": "male, 105 mg/kg/day, Study Day 28, Male"}, "[12]": {"conditions": "male, 150 mg/kg/day, Study Day 1, Male"}}, "note": "Like-named read-outs stand apart in the source and are kept apart here."}
{"smiles": "C=CC(=O)N1CC[C@@H](n2nc(-c3ccc(Oc4c(F)c(F)cc(F)c4F)cc3F)c3c(N)ncnc32)C1", "note": "[Compound 45, 1-((R)-3-(4-amino-3-(2-fluoro-4-(2,3,5,6-tetrafluorophenoxy)phenyl)-1H-pyrazolo[3,4-d]pyrimidin-1-yl)pyrrolidin-1-yl)prop-2-en-1-one]", "values": [{"measurement": "AUC compared with ibrutinib", "setting": "TK data", "value": "significantly higher than that of ibrutinib"}, {"measurement": "Cmax", "setting": "[1]", "value": "685 ± 212", "unit": "ng/mL"}, {"measurement": "Tmax", "setting": "[1]", "value": 1, "unit": "h"}, {"measurement": "AUC(0-t)", "setting": "[1]", "value": 2930, "unit": "ng·h/mL"}, {"measurement": "Cmax", "setting": "[2]", "value": "687 ± 123", "unit": "ng/mL"}, {"measurement": "Tmax", "setting": "[2]", "value": 2, "unit": "h"}, {"measurement": "AUC(0-t)", "setting": "[2]", "value": "3730 ± 549", "unit": "ng·h/mL"}, {"measurement": "Cmax", "setting": "[3]", "value": "1220 ± 431", "unit": "ng/mL"}, {"measurement": "Tmax", "setting": "[3]", "value": 2, "unit": "h"}, {"measurement": "AUC(0-t)", "setting": "[3]", "value": "6220 ± 3000", "unit": "ng·h/mL"}, {"measurement": "Cmax", "setting": "[4]", "value": "1060 ± 263", "unit": "ng/mL"}, {"measurement": "Tmax", "setting": "[4]", "value": 2, "unit": "h"}, {"measurement": "AUC(0-t)", "setting": "[4]", "value": "8130 ± 1490", "unit": "ng·h/mL"}, {"measurement": "Cmax", "setting": "[5]", "value": "2420 ± 670", "unit": "ng/mL"}, {"measurement": "Tmax", "setting": "[5]", "value": 2, "unit": "h"}, {"measurement": "AUC(0-t)", "setting": "[5]", "value": "17300 ± 2830", "unit": "ng·h/mL"}, {"measurement": "Cmax", "setting": "[6]", "value": "1850 ± 605", "unit": "ng/mL"}, {"measurement": "Tmax", "setting": "[6]", "value": 2, "unit": "h"}, {"measurement": "AUC(0-t)", "setting": "[6]", "value": "11200 ± 5990", "unit": "ng·h/mL"}, {"measurement": "Cmax", "setting": "[7]", "value": 746, "unit": "ng/mL"}, {"measurement": "Tmax", "setting": "[7]", "value": 2, "unit": "h"}, {"measurement": "AUC(0-t)", "setting": "[7]", "value": 3550, "unit": "ng·h/mL"}, {"measurement": "Cmax", "setting": "[8]", "value": "576 ± 145", "unit": "ng/mL"}, {"measurement": "Tmax", "setting": "[8]", "value": 2, "unit": "h"}, {"measurement": "AUC(0-t)", "setting": "[8]", "value": "3260 ± 732", "unit": "ng·h/mL"}, {"measurement": "Cmax", "setting": "[9]", "value": "1240 ± 381", "unit": "ng/mL"}, {"measurement": "Tmax", "setting": "[9]", "value": 2, "unit": "h"}, {"measurement": "AUC(0-t)", "setting": "[9]", "value": "6480 ± 1670", "unit": "ng·h/mL"}, {"measurement": "Cmax", "setting": "[10]", "value": "1470 ± 538", "unit": "ng/mL"}, {"measurement": "Tmax", "setting": "[10]", "value": 2, "unit": "h"}, {"measurement": "AUC(0-t)", "setting": "[10]", "value": "9170 ± 3810", "unit": "ng·h/mL"}, {"measurement": "Cmax", "setting": "[11]", "value": "2700 ± 769", "unit": "ng/mL"}, {"measurement": "Tmax", "setting": "[11]", "value": 2, "unit": "h"}, {"measurement": "AUC(0-t)", "setting": "[11]", "value": "16400 ± 5410", "unit": "ng·h/mL"}, {"measurement": "Cmax", "setting": "[12]", "value": "2460 ± 858", "unit": "ng/mL"}, {"measurement": "Tmax", "setting": "[12]", "value": 4, "unit": "h"}, {"measurement": "AUC(0-t)", "setting": "[12]", "value": "22900 ± 13900", "unit": "ng·h/mL"}]}
